In patent publication US5945509A, “Glutamate receptor compositions and method” (The Salk Institute for Biological Studies, priority 1995, dated 1999):
Read-outs that look alike come from different tables or passages of the source. One block for each compound: values may come before it.

Experiments:
GluR1 = molecular target: T1, GluR1 (Rattus norvegicus, UniProt P19490); experiment: Electrophysiological recording in Xenopus oocytes injected with GluR1 in vitro RNA; assay type: cell-based
T1 construct: expressed in transfected cells; host or cells: Xenopus oocytes injected with in vitro transcribed pGluR1 sense RNA
T1 sequence (P19490 19-907): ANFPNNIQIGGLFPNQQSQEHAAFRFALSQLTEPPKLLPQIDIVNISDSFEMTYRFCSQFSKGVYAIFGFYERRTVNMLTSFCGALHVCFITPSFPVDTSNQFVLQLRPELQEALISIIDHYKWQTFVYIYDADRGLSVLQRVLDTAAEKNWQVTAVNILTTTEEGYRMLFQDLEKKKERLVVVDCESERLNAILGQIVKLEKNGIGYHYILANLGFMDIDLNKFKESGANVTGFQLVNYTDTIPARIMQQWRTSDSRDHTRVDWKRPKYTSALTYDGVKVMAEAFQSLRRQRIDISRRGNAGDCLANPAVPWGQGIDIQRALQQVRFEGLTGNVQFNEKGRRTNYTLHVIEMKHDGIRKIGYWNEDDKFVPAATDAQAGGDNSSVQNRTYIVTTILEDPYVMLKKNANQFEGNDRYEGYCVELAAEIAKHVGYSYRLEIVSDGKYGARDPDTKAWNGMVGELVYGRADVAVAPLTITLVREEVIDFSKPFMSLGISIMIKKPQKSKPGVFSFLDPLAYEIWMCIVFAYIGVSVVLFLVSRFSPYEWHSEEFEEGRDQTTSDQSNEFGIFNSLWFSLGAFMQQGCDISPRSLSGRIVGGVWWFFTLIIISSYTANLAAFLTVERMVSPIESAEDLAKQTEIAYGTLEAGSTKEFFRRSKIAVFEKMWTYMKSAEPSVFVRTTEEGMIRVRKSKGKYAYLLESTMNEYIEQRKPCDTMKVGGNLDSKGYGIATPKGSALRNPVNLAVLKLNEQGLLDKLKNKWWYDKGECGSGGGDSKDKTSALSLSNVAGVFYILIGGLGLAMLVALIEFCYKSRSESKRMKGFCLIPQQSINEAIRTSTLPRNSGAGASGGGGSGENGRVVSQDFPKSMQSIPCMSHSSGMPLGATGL
Experimental: It depends upon the fact that when foreign mRNA is injected into Xenopus oocytes, the mRNA is translated into functional protein.
Either a λZAP cDNA preparation, or a plasmid containing the cDNA to be tested, are cut downstream from the cDNA insert with a restriction enzyme. The post-restriction digest is digested with Proteinase K and then extracted with two phenol: chloroform (1:1) extractions. The resulting DNA fragments are then ethanol precipitated. The precipitated fragments are mixed with either T3 RNA polymerase (to make sense strand), or T7 RNA polymerase (to make anti-sense strand), plus rATP, rCTP, rGTP, rUTP, and RNase inhibitor. Simultaneously, the RNA transcripts are capped with a sodium diguanosine triphosphate [G(5')ppp(5')G] cap. The water used for the above procedures is treated with diethylpyrocarbonate to inactivate RNases.
The in vitro synthesized mRNA transcripts are injected into Xenopus oocytes. 50 nl of an RNA solution, 0.2-0.6 mg/ml, is injected into the stage V oocytes. The injected oocytes are incubated at 16° C. in Barth's medium for 2-7 days before they are analyzed for the presence of functional receptors.
Voltage recordings are made by penetrating the oocyte with a micro-electrode filled with 3M KCl and connected to the bridge circuit of an appropriate voltage clamp unit, e.g., the Dagan 8500 voltage clamp unit. Voltage recordings are preferably obtained with two electrodes, a voltage electrode filled with 3M KCl and a current electrode filled with 0.25 M CsCl, 0.25 M CsF and 50 mM EGTA (ethylene glycol tetraacetic acid).
Oocytes employed herein are obtained from ovarian tissue from anesthetized adult female Xenopus. The ovarian tissue is treated with collagenase, 2 mg/ml, for two hours and then the ovarian epithelium and follicular cells are dissected away.
The plasmid pGluR1 was subsequently rescued from bacteriophage λZAPII-GluR1.
3 days prior to the recording. The oocytes were voltageclamped at -70 mV,
applied by rapid superfusion, with 5 minute intervals between drugs. Peak
currents were recorded; each number represents the average of 3 recording
from 3 different oocytes, ± SEM.
(§1) The data in FIG. 3B represent the responses of oocytes to the indicated agonists measured 3 days after injection with GluR1 (2 ng) or GluR3 (2 ng) RNA or adult rat brain hippocampus poly(A)^+ RNA (~50 ng). All values are normalized to the response obtained with […] and are presented as the mean±S.E.M. with n≥3 for all measurements.

homomeric GluR6 receptor = molecular target: T2, homomeric GluR6 receptor (Rattus norvegicus, UniProt P42260, I567V/Q621R/Y571C); experiment: Current recording in Xenopus oocytes injected with GluR6 RNA (homomeric GluR6 receptor); assay type: cell-based; settings: for current measured at -70 mV: 10 μM kainate
T2 construct: engineer a cDNA clone encoding the entire open reading frame of the GluR6 protein; expressed in transfected cells; host or cells: Xenopus oocytes injected with in vitro transcribed GluR6 RNA
T2 sequence (P42260 with tags, fused parts or gaps I567V/Y571C/Q621R): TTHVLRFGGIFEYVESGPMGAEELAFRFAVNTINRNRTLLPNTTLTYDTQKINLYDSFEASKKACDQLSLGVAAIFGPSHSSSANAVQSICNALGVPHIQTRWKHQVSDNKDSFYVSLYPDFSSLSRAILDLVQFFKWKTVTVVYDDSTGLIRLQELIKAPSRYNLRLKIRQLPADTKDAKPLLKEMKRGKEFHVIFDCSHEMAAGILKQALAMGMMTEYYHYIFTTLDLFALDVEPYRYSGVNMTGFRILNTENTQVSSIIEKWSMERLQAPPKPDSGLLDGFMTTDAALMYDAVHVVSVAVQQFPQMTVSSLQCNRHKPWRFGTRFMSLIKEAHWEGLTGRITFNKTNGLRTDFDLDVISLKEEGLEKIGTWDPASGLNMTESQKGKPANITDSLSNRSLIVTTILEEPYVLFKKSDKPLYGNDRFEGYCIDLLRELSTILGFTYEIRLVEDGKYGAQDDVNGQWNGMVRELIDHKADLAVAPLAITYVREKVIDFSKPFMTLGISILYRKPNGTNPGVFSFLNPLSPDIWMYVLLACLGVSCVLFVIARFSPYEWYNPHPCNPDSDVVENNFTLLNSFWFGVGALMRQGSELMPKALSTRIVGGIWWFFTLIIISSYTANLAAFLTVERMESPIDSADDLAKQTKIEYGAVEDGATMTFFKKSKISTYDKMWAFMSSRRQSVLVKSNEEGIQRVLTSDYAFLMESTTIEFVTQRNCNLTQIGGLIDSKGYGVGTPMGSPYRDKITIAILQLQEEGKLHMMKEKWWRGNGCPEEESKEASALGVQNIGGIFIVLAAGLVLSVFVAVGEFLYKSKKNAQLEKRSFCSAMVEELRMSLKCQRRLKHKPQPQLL

GluR3 = assay type: cell-based, rat
Experimental: Thus, oocytes were injected with in vitro synthesized RNA transcripts derived from individual cDNA clones.
as §1

[1] = system: oocytes injected with poly(A)+ RNA isolated from rat forebrain; assay type: cell-based; settings: 2-10 days after injection
GluR5-1 = assay type: cell-based, rat
Description: (§2) In vitro synthesized GluR5-1 and GluR5-2 cRNAs were individually expressed in Xenopus oocytes.

GluR5-2 = GluR5-2 (Rattus norvegicus, UniProt P22756); assay type: cell-based
Chain of GluR5-2 (P22756 31-949): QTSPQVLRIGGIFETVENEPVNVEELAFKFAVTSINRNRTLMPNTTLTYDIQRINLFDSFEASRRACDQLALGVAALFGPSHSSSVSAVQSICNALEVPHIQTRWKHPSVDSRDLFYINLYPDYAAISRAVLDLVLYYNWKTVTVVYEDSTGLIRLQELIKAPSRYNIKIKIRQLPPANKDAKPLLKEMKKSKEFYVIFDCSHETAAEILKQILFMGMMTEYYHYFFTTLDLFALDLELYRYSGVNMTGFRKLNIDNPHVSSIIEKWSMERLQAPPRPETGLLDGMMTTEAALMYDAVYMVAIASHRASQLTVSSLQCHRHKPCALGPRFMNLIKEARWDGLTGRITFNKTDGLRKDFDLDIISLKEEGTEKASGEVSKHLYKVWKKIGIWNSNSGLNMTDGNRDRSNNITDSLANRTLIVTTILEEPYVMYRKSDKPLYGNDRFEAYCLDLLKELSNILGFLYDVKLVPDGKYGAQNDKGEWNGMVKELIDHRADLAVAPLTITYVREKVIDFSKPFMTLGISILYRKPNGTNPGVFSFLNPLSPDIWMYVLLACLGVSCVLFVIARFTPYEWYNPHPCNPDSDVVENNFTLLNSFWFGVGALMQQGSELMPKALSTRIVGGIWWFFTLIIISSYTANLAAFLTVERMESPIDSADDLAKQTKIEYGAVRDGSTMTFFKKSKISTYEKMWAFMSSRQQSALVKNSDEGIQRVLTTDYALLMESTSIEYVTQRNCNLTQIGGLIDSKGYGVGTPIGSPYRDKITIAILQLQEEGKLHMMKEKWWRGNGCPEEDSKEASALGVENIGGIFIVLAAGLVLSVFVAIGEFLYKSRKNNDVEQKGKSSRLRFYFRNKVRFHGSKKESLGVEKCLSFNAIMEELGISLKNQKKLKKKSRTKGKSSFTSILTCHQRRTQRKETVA
Description: as §2

[2] = system: oocytes injected with pool of in vitro transcripts from rat forebrain cDNA library; experiment: Voltage recordings from oocytes injected with pooled in vitro transcripts of the λZAPII RTB1 cDNA library; assay type: cell-based; settings: 10 days after injection
Experimental: A directional cDNA library (λZAPII RTB1; complexity: 8×10^5 elements), consisting of 18 independent sublibraries of 44,000 clones each, was constructed from this poly(A)^+ RNA using the bacteriophage expression vector λZAPII. A pool of in vitro transcripts, comprised of transcripts made separately from all 18 amplified sublibraries, was injected into oocytes. […] Subsequently, pools of 44,000 clones (=the single sublibraries), 4,000, 400 and 40 clones were tested.

[3] = oocytes held at -100 mV, without Con A, AMPA 100 μM
[4] = QUIS 10 μM, AMPA 50 μM, GLU 100 μM, NMDA 30 μM plus 10 μM glycine, APB 50 μM, -70 mV, 3 days after 2 ng RNA

Compound: O=C(O)[C@H]1CCCN[C@H]1C(=O)O (relative stereo) [PDA, 2,3cis-piperidine dicarboxylic acid]
Compound Alone (%) (GluR1): 2.5 ± 0.7%

Compound: Cc1onc(O)c1CC(N)C(=O)O (stereo not drawn) [AMPA, α-amino-3-hydroxy-5-methyl-isoxazole-4-propionic acid]
response of Con A treated oocytes (in words) (homomeric GluR6 receptor): did not respond
effect of coapplication on kainate-evoked (1 μM) responses (homomeric GluR6 receptor; AMPA 100 μM, Con A treated oocytes): no effect
current evoked by agonist (in words) (homomeric GluR6 receptor; [3]): did not evoke any detectable current

Compound: NC(CCP(=O)(O)O)C(=O)O (stereo not shown) [APB, 2-amino-4-phosphonobutyric acid]
response of oocytes to agonist (in words) (GluR3; [4]): No detectable responses
response to selective agonists (in words) [1]: gave no response
membrane depolarization elicited by agonist (in words) (GluR5-1; KA, AMPA 50 μM, quisqualate 10 μM, APB 100 μM, NMDA 100 μM with 10 μM glycine): did not elicit membrane depolarizations
response of oocytes to agonist (in words) (GluR1; [4]): No detectable responses
membrane depolarization elicited by agonist (in words) (GluR5-2; KA 100 MM, AMPA 50 μM, quisqualate 10 μM, APB 100 μM, NMDA 100 μM with 10 μM glycine): did not elicit membrane depolarizations

Compound Alone (%) (GluR1; % of the response evoked by 30 μM kainate immediately before drug application, compounds at 1 mM (kainate 30 μM), -70 mV, peak currents, 3 oocytes, ± SEM): 3.1 ± 1.4%
Compound: NC(CCCP(=O)(O)O)C(=O)O (stereo not shown) [APV, 2amino-5-phospho-novaleric acid]

Compound: N#Cc1cc2[nH]c(=O)c(=O)[nH]c2cc1[N+](=O)[O-] [CNQX, 6-nitro-7-cyano-quinoxaline-2,3-dione]
block of agonist-evoked responses (in words) (homomeric GluR6 receptor): blocked both quisqualate and kainate-evoked responses

Compound: O=C(O)C1CN(CCCP(=O)(O)O)CCN1 (stereo not shown) [CPP, 3 (2carboxypiperazin-4-yl)propyl-1-phosphate]
Compound Alone (%) (GluR1): 9.1 ± 0.7%

Compound: CCOC(=O)CC[C@H](N)C(=O)OCC [GDEE, glutamate diethylester]
Compound Alone (%) (GluR1): 24.8 ± 5.7%
agonist properties (in words) (GluR1; each at 1 mM): weak agonist properties

Compound: O=C(O)c1cc(=O)c2ccccc2[nH]1 [Kynurenic acid]
Compound Alone (%) (GluR1): 3.4 ± 0.2%

Compound: CN[C@H](CC(=O)O)C(=O)O [NMDA, N-methyl-D-aspartic acid]
response to agonist (in words) [2]: No responses
response of Con A treated oocytes (in words) (homomeric GluR6 receptor): did not respond
response of oocytes to agonist (in words) (GluR3): No detectable responses
response to selective agonists (in words) [1]: elicited smooth responses with fast onsets
membrane depolarization elicited by agonist (in words) (GluR5-1): did not elicit membrane depolarizations
response evoked by glutamate receptor agonists (GluR1): no responses
response of oocytes to agonist (in words) (GluR1): No detectable responses
membrane depolarization elicited by agonist (in words) (GluR5-2): did not elicit membrane depolarizations

Compound: NCC(=O)O [glycine]
potentiation of the KA response (GluR1): did not potentiate
response evoked by unrelated neurotransmitter receptor agonists (GluR1): failed to evoke responses

Compound: C=C(C)[C@H]1CN[C@H](C(=O)O)[C@H]1CC(=O)O [kainate, kainic acid]
current measured at -70 mV (homomeric GluR6 receptor; Con A treated, modified Ringer solution (NaCl substituted by sodium methanesulfonate)): 330 nA
current measured at -70 mV (homomeric GluR6 receptor; Ringer solution, after Con A treatment): 2.3 μa
current measured at -70 mV (homomeric GluR6 receptor; Ringer solution, before Con A treatment): 30 nA
time for full recovery from desensitization (homomeric GluR6 receptor; after 100 μM kainate for 30 seconds): approximately 15 minutes
response of Con A treated oocytes (in words) (homomeric GluR6 receptor; aspartate 100 μM, NMDA 100 μM with 3 μM glycine, AMPA 10-1000 μM): responded
current evoked by agonist (in words) (homomeric GluR6 receptor; [3]): evoked inward currents that desensitized
100% current response (GluR1; 30 μM kainate, -70 mV, depending on the oocyte): 40-200 nA

Compound: CN1CCCC1c1cccnc1 (stereo not shown) [nicotine]
response evoked by unrelated neurotransmitter receptor agonists (GluR1): failed to evoke responses

Compound: N[C@@H](Cn1oc(=O)[nH]c1=O)C(=O)O [quisqualate, quisqualic acid]
current evoked by agonist (in words) (homomeric GluR6 receptor): activated only small inward currents
effect on kainate-evoked current (in words) (homomeric GluR6 receptor; without Con A): attenuated a subsequent kainate evoked current
membrane depolarization elicited by agonist (in words) (GluR5-2): did not elicit membrane depolarizations

response evoked by unrelated neurotransmitter receptor agonists (GluR1; concentrations as high as 1 mM): failed to evoke responses
Compound: NCCc1c[nH]c2ccc(O)cc12 [serotonin]

Compound: N[C@H](CCC(=O)NCC(=O)O)C(=O)O [γ-DGG, D-glutamylglycine]
Compound Alone (%) (GluR1): -0.1 ± 0.5%

Compound: NCCCC(=O)O [γ-aminobutyric acid]
response evoked by unrelated neurotransmitter receptor agonists (GluR1; concentrations as high as 1 mM): failed to evoke responses

Compound: concanavalin A [Con A]
effect on desensitization (homomeric GluR6 receptor; 10 μM Con A for 5 minutes): efficiently decreases desensitization
